Results taken from patent US11278548B2, “Methods and compositions for reducing side effects in chemotherapeutic treatments” (Galderma Research and Development, priority 2017, dated 2022).
“Also recorded” adds a separate entry of the source.

System: acneiform rash

Brc1c(NC2=NCCN2)ccc2nccnc12 [brimonidine, (5-bromo-quinoxalin-6-yl)-(4,5-dihydro-1H-imidazol-2-yl)-amine]
treated patients with a decrease in rash severity (18 EGFRI-treated patients, CTCAE v4.0 grading, followed for 12 to 24 weeks, n=17, most also on antibiotics or corticosteroids): 94% | adverse events to brimonidine (18 EGFRI-treated patients, followed for 12 to 24 weeks): not reported; also recorded: no adverse events | acneiform rash outcome (in words) (EGFRI-treated patients, 83% also receiving systemic antibiotics, topical antibiotics or corticosteroids): improvement in acneiform rash in all patients | dose modification of anticancer therapies (majority of treated patients): did not require dose modification
